Several values for one entry are separate records, joined by “and”; a condition that tells them apart may be missing. Equal values may be shown once.
Columns and labels:
Assay type in all cases: in vivo
Aedes aegypti mosquitos = test: Arm-in-cage test, protective efficacy; conditions: for No. probing on treated arm: 30 seconds exposure; for No. probing on treated arm / % PE: per replicate cage; for Total % PE: three cages
Procedure: Additional testing was performed with the lotion formula of example 4 including: bee's wax, soybean oil, edible oil such as sunflower oil, isopropyl alcohol, cinnamon oil, cedar wood oil, citronella oil, turmeric, anise, basil oil, salt, ethyl ester, and water with the following protocols. Aedes aegypti mmosquitoes were obtained from insecticide-susceptible reference strains held at the London School of Hygiene & Tropical Medicine, UK. All mosquitoes are reared and housed under optimal environmental conditions of 25° C. ±2° C. and 80% Relative Humidity with a 12:12 hour photoperiod. Testing was carried out in a testing room maintained at […] and 80% RH with a 12:12 hour photoperiod. For each product, the same person carried out the arm-in-cage testing.
For each product test, three batches of 50 female mosquitoes were placed in cages 30×30×30 cm inside the testing room. Before the start of each test a bare arm with gloved hand was inserted into the cage for 30 seconds to assess the biting readiness of the mosquitoes. Only cages with at least ten mosquitoes landing within 30 seconds were used in subsequent testing. The number of mosquitoes probing the untreated arm was counted at the end of the 30 second test. Following the combined fitness/control test, the product was applied onto the right arm at the WHO standard rate of 1 ml per 600 cm2 ([…] per cm2) for the Mosquito Insect Repellent and DEET, and at a rate of 2 mg per cm′ for the Sunscreen Repellent. The arm was then inserted into the cage for 30 seconds and the number of mosquitoes probing on the arm counted and recorded. The procedure was repeated with a total of three cages. This was repeated for each of the three cages and at hourly intervals until 8 hours post-application or until protection drops below 50%. Each product was tested on a separate test day.
Protective efficacy (PE) was calculated using the following formula: PE=(Mosquitoes probing on control arm—Mosquitoes probing on treated arm)/Mosquitoes probing on control arm×100. The average probing on the control arm during testing was 16, 17 and 21 mosquitoes at the end of the 30 second exposure time, in cages used for testing the Mosquito Insect Repellent Lotion and 8% DEET respectively. The Mosquito Insect Repellent Lotion 100% protection at 0 hours, whereas the 8% DEET provided 100% protection for 1 hour after application (Table 1). The Mosquito Insect Repellent Lotion provided over 50% protection for, 3 hours, whereas 8% DEET provided over 50% protection for 6 hours.

[1] = test system: yellow fever mosquitos, Aedes aegypti; test: In vitro K & D module biting bioassay, compositions of examples 1-3 vs DEET
Procedure: The deterrent effect of the above-described compositions of examples 1 -3 was tested in a controlled environment. In vitro laboratory tests were conducted and measured and compared to DEET and nontreated control groups for yellow fever mosquitos, Aedes aegypti. Bioassays were conducted in nine six-chambered Plexiglas K & D modules stocked with female Aedes aegypti mosquitos as shown in FIGS. 1-3. Five female mosquitos were aspirated into each of the six chambers of the nine modules. Repellant treatments were applied at 26.7 microliters with a pipette and spread with a small brush over 12 square centimeter sections of organdy cloth attached to a flat plastic template containing rectangular openings. The treated cloth covered template was fitted between the K & D module and a lower Plexiglas unit. The lower Plexiglas unit contained shallow surface wells filled with a blood substitute (CDTA and ATP) and covered with a moistened collagen membrane. The blood substitute was heated to 38° C. using water pumped through hose lines attached to the lower units and a water bath supplied with a temperature controlled inversion circulator. Mosquitos were exposed to the treated surfaces by opening sliding doors beneath the modules for 90-second biting counts at five post-treatment time intervals from 1 to 6 hours. Fresh, untreated mosquitos are used for each time interval.
The testing protocol including the in vitro environment provides a rigorous testing of the repellency of the composition as the mosquitos are confined with a blood meal.
An unpaired t-test was conducted on the biting counts between lotion as described herein and the control group where there was no treatment applied between the mosquito and the blood well. […] The statistical factors include t=5.8704 where df=16 and a standard error of difference is equal to 0.530. The two-tailed p value is less than 0.0001. The reduction in biting pressure when using the compositions compared to the control group is significant at the 99.99 level of significance.

[2] = test system: yellow fever mosquitoes, Aedes aegypti; test: In vitro K&D module biting bioassay, example 5 (No-Bite), No-Burn and 7% DEET; conditions: 4 hours post-treatment; p>0.05
Procedure: The deterrent effect of the above-described compositions of example 5 (represented as NO-Bite in FIGS. 7-8) was tested in a controlled environment. In vitro laboratory tests were conducted and measured and compared to DEET and nontreated control groups for yellow fever mosquitos, Aedes aegypti. The repellency of the formulations were compared to a DEET standard, and a non-treated control against yellow fever mosquitoes, Aedes aegypti. The examples were performed in a temperature-controlled laboratory following techniques as disclosed in Klun, J. A., M. A. Kramer, A. Zhang, S. Wang, and M. Debboun. 2008. A quantitative in vitro assay for mosquito deterrent activity without human blood cells. J Am. Mosq. Contr. Assoc. 24:508-512. […] Five colony-reared female Aedes aegypti were aspirated into each chamber (FIG. 1). […] The variance in biting count means by treatment and time intervals was statistically analyzed with SAS Proc ANOVA and statistically tested for significant differences with Tukey's Studentized Range test at p<0.05 and charted with 95% Confidence Intervals (C.I.). Average % repellency was calculated with the following formula and charted by treatment and time interval: (Control Avg. Biting Count—Treatment Avg. Biting Count)÷Control Avg. […]

CCN(CC)C(=O)c1cccc(C)c1 [8% DEET, DEET]
No. probing on treated arm (Aedes aegypti mosquitos; 0 hours after application): 0
% PE (Aedes aegypti mosquitos; 0 hours after application): 100.00%
Total % PE (Aedes aegypti mosquitos; 0 hours after application): 100.00%
No. probing on treated arm (Aedes aegypti mosquitos; 1 hour after application): 0
% PE (Aedes aegypti mosquitos; 1 hour after application): 100.00%
Total % PE (Aedes aegypti mosquitos; 1 hour after application): 100.00%
No. probing on treated arm (Aedes aegypti mosquitos; 2 hours after application): 1 and 2 and 0
% PE (Aedes aegypti mosquitos; 2 hours after application): 91.67% and 90.91% and 100.00%
Total % PE (Aedes aegypti mosquitos; 2 hours after application): 95.00%
No. probing on treated arm (Aedes aegypti mosquitos; 3 hours after application): 2 and 0
% PE (Aedes aegypti mosquitos; 3 hours after application): 90.00% and 100.00%
Total % PE (Aedes aegypti mosquitos; 3 hours after application): 95.35%
No. probing on treated arm (Aedes aegypti mosquitos; 4 hours after application): 2 and 1 and 0
% PE (Aedes aegypti mosquitos; 4 hours after application): 91.67% and 94.12% and 100.00%
Total % PE (Aedes aegypti mosquitos; 4 hours after application): 95.16%
No. probing on treated arm (Aedes aegypti mosquitos; 5 hours after application): 2 (2×) and 3
% PE (Aedes aegypti mosquitos; 5 hours after application): 93.10% and 88.89% and 86.96%
Total % PE (Aedes aegypti mosquitos; 5 hours after application): 90.00%
No. probing on treated arm (Aedes aegypti mosquitos; 6 hours after application): 10 and 6 and 7
% PE (Aedes aegypti mosquitos; 6 hours after application): 41.18% and 57.14% and 65.00%
Total % PE (Aedes aegypti mosquitos; 6 hours after application): 54.90%
No. probing on treated arm (Aedes aegypti mosquitos; 7 hours after application): 7 and 6 and 9
% PE (Aedes aegypti mosquitos; 7 hours after application): 36.36% and 50.00% (2×)
Total % PE (Aedes aegypti mosquitos; 7 hours after application): 46.34%
time after application for which 100% protection was provided (Aedes aegypti mosquitos; arm-in-cage, hourly intervals): 1 h
time for which over 50% protection was provided (Aedes aegypti mosquitos; arm-in-cage, hourly intervals): 6 h

CCN(CC)C(=O)c1cccc(C)c1 [DEET]
repellency ([1]; 6 hour time period): 87.1%
repellency, average for all five time periods ([1]; average of five post-treatment time intervals): 86.52%
repellency ([1]; initial start time of zero, 90-second biting counts, 26.7 microliters on 12 square centimeter cloth): 91.9%
biting activity compared with control [2]: no significance difference
